Assay results taken from patent publication US8664277B2, “Compounds and methods for PKCθ inhibition” (Complegen Partners, LLC, priority 2008, dated 2014).
Like-named read-outs stand apart in the source and are kept apart here. Blank lines part the entries; values can stand above or below the compound they belong to.

Tests used:
[1] = target: T1, Human PKC theta (Homo sapiens, UniProt Q04759); test: XenoGene yeast growth inhibition, yeast containing human PKC theta gene; assay type: cell-based
T1 construct: expressed in transfected cells; host or cells: yeast (XenoGene strain)
T1 sequence (Q04759 whole entry): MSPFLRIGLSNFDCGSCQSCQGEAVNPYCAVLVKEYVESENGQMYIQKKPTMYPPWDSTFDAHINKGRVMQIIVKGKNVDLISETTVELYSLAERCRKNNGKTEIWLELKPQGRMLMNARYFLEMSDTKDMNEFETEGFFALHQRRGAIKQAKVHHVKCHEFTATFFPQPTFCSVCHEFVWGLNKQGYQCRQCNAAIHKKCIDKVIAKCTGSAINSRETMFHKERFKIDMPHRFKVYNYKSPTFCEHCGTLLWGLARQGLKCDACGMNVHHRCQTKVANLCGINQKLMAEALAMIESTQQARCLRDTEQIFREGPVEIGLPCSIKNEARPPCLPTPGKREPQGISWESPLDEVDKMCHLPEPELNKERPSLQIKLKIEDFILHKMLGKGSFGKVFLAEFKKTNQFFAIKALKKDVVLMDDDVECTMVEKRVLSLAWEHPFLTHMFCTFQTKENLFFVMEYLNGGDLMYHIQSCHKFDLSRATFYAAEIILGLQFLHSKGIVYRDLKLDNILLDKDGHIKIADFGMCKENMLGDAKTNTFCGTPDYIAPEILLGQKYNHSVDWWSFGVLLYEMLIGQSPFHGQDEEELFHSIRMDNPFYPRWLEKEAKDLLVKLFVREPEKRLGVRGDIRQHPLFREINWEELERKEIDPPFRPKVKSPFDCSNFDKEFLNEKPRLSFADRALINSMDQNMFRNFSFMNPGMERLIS
From the text: Using the XenoGene™ system described within, compounds inhibiting PKCθ are identified. The XenoGene™ system is a technology developed and patented by CompleGen wherein genes (“XenoGenes”™) from a target organism (e.g. humans) are used to functionally replace essential genes of a simple organism (yeast). These modified yeast are used to select compounds that act specifically on the protein encoded by the target gene and eliminate compounds that are not specific. […]

[2] = target: T2, PKC delta (Homo sapiens, UniProt Q05655); test: XenoGene counter-screen, PKC delta; assay type: cell-based; details: inverse of (PKC-theta IC50)/(PKC-X IC50)
T2 construct: expressed in transfected cells; host or cells: yeast (XenoGene strain)
T2 sequence (Q05655 whole entry): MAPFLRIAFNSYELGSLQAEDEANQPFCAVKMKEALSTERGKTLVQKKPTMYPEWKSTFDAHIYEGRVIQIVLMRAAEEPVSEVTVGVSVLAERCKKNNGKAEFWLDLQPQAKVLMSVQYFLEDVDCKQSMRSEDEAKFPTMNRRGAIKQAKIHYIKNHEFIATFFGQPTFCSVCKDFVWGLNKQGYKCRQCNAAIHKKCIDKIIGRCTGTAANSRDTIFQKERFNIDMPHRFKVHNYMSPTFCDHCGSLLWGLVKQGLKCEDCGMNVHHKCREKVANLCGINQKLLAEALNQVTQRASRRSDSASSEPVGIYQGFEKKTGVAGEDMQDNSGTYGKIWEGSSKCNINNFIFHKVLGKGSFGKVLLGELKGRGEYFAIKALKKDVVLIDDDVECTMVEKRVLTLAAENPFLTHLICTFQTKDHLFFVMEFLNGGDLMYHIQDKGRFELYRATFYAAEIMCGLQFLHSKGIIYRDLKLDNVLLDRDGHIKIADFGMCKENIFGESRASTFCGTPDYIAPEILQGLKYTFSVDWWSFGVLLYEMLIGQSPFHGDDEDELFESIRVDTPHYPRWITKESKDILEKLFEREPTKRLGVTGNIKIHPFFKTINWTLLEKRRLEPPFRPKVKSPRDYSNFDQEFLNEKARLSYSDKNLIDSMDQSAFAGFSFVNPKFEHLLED
Protocol: (§1) To identify compounds as being selective PKC theta inhibitors the IC50 values are determined against XenoGene™ strains containing other XenoGenes™, especially certain other PKC genes (see Example 10).
(§2) Human PKC theta gene (cDNA) was used to generate a XenoGene™ system as previously described (U.S. Pat. Nos. 6,998,261, 6,232,074), which was used to screen compounds in a chemical compound library. XenoGene™ systems used as counter-screens were constructed similarly using the gene for the appropriate counter-screen target. In particular, human genes (cDNA) encoding PKC delta, PKC eta and PKC epsilon were used to generate XenoGene™ systems.

[3] = target: T3, PKC epsilon (Homo sapiens, UniProt Q02156); test: XenoGene counter-screen, PKC epsilon; assay type: cell-based; details: inverse of (PKC-theta IC50)/(PKC-X IC50)
T3 construct: expressed in transfected cells; host or cells: yeast (XenoGene strain)
T3 sequence (Q02156 1-737): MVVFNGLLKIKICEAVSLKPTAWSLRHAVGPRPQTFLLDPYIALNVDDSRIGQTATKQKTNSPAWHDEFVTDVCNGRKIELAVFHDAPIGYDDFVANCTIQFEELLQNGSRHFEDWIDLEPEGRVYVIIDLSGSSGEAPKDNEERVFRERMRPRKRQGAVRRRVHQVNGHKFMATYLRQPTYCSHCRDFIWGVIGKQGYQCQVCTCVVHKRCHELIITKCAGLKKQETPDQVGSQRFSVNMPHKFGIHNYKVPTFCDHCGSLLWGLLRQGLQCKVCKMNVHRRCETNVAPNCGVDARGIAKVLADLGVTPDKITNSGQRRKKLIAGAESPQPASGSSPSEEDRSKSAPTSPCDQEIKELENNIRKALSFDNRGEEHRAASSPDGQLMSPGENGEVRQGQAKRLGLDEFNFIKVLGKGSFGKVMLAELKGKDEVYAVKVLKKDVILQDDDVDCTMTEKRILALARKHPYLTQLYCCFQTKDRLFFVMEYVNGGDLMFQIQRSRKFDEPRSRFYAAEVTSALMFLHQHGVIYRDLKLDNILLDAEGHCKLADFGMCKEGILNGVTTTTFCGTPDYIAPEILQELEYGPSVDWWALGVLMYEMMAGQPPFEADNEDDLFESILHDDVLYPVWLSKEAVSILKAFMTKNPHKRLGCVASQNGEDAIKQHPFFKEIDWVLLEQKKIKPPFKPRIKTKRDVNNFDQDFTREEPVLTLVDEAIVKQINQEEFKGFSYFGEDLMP
Protocol: as §1, §2

[4] = target: T4, PKC eta (Homo sapiens, UniProt P24723); test: XenoGene counter-screen, PKC eta; assay type: cell-based; details: inverse of (PKC-theta IC50)/(PKC-X IC50)
T4 construct: expressed in transfected cells; host or cells: yeast (XenoGene strain)
T4 sequence (P24723 whole entry): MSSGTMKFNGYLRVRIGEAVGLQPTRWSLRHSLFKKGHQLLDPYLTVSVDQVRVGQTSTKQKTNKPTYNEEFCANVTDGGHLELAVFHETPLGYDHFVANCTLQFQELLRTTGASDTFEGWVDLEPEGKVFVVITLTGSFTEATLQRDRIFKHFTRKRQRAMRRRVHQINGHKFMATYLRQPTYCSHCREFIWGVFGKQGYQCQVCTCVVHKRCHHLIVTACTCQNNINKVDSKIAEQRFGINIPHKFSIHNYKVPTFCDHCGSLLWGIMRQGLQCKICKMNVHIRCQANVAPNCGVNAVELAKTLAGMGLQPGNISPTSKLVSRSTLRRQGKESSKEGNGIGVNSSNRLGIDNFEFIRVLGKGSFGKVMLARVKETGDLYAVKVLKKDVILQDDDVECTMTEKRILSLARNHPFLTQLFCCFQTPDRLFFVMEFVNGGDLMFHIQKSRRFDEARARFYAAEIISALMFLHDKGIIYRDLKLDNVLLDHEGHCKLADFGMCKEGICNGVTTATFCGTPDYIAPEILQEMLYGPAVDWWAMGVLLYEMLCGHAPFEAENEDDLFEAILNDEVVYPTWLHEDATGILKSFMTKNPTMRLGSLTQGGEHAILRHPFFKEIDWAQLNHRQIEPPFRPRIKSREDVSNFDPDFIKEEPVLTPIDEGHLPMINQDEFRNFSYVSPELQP
Protocol: as §1, §2

[5] = target: T5, yeast PKC1 (Saccharomyces cerevisiae, UniProt P24583); test: XenoGene counter-screen, yeast PKC1; assay type: cell-based; details: inverse of (PKC-theta IC50)/(PKC-X IC50)
T5 construct: endogenous in cells; host or cells: yeast control strain
T5 sequence (P24583 1-1151): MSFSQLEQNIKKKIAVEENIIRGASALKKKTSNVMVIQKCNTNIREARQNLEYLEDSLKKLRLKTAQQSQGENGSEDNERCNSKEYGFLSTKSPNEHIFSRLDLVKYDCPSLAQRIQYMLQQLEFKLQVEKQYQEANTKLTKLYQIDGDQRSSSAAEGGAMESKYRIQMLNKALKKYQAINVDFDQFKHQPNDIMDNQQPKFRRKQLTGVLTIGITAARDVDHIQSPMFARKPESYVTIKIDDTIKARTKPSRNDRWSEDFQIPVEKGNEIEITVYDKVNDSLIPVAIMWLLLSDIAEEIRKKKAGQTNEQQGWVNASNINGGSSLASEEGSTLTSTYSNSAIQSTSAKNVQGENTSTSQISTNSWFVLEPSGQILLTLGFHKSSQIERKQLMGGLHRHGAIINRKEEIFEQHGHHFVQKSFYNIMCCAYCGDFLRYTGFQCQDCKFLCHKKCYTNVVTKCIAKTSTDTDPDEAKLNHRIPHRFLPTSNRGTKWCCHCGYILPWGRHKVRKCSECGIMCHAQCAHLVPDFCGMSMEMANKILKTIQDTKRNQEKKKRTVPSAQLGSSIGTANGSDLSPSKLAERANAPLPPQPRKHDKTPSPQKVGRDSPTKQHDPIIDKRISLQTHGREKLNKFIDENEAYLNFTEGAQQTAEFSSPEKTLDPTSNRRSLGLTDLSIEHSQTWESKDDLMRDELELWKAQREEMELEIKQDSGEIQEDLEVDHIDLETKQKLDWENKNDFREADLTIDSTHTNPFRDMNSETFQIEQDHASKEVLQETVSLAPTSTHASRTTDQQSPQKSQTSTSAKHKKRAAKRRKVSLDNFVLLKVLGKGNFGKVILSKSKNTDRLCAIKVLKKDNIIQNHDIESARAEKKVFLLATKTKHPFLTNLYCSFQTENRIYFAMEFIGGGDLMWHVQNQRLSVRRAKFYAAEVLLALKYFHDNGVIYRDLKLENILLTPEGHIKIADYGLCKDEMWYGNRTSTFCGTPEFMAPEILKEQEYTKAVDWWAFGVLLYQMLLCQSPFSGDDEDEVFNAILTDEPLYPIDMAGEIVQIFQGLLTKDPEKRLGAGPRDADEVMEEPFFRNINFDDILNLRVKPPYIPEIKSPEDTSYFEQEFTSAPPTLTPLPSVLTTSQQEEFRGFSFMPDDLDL
From the text: Using the XenoGene™ system described within, compounds inhibiting PKCθ are identified. The XenoGene™ system is a technology developed and patented by CompleGen wherein genes (“XenoGenes”™) from a target organism (e.g. humans) are used to functionally replace essential genes of a simple organism (yeast). These modified yeast are used to select compounds that act specifically on the protein encoded by the target gene and eliminate compounds that are not specific. XenoGene™ constructs provide a very high throughput screening system that allows identification of compounds active on the function of the target protein in a cell under physiological conditions on “first-pass” screening and further, to selectively counter-screen against 200 human targets or more if necessary. […] The relative potencies of the active compounds is determined by titration to find the concentration of compound providing 50% inhibition of growth (IC50) against the yeast containing the target gene (Table 1).
as §2

[6] = test system: Mouse splenic T cells; test: Inhibition of naive T cell activation (anti-CD3/anti-CD28), 3H-TdR incorporation; assay type: cell-based; details: three days, control without compound 31571
Protocol: Inhibition of naïve T cell activation by compound 471. Mouse splenic T cells were isolated from unimmunized mice by magnetic negative selection (Miltenyi®, Untouched T Cell Isolation Kit) or FACS using anti-CD3-PE-Cy7. Isolated T cells were incubated in microtiter wells coated with anti-CD3 monoclonal antibody and soluble anti-CD28 monoclonal antibody, 10^5 cells/100 μl in 10% FBS-RPMI as above, for three days. Proliferation was measured by ^3H-TdR incorporation.

[7] = test system: T cell lymphomas; test: Inhibition of T cell lymphomas, live cells counted by flow cytometry; assay type: cell-based, mouse; details: for EC50: Mus musculus, T-cell, 96 h, 4 days growth
From the text: The compounds of the present invention can also be screened for the ability to inhibit T cell lymphomas. Assays for inhibiting T cell lymphomas are known to one of skill in the art. In some embodiments, the assay involves mice generated from the nucleus of a mature T cell with a “fixed” rearranged T cell receptor. These T cells spontaneously generate T cell lymphomas which resemble human T cell lymphomas. T cell lymphomas isolated from the mice can then be treated with compounds of the present invention. After sufficient time to allow for cell growth, live cells are counted by flow cytometry (Serwold et al. (2007) J. Immunol. 179; 928). One of skill in the art will appreciate that other assays are useful in the present invention.
(§3) Mice generated from the nucleus of a mature T cell (see Hochedlinger K, Jaenisch R. (2002) Nature 415; 1035) with a “fixed” rearranged T cell receptor spontaneously generate T cell lymphomas which resemble human T cell lymphomas. Several T cell lymphomas (1-4) isolated from these mice were treated with compound 471. All T cell lymphomas were inhibited by compound 471. A B-cell hybridoma served as a non-T cell control and was not affected by the compound. Cells were seeded into 96-well plates (5,000 cells/well) in the presence of compound 471 at concentrations ranging from 0.1 to 5 uM. After 4 days growth (37° C., 5% CO2), live cells were counted by flow cytometry (Serwold et al. (2007) J. Immunol. 179; 928)

[8] = test system: B-cell hybridoma; test: B-cell hybridoma non-T cell control, live cells counted by flow cytometry; assay type: cell-based
Protocol: as §3

[9] = 50% inhibition of growth of yeast containing the target gene, read-out: IC50
[10] = XenoGene system, read-out: PKC-theta IC50
[11] = IC50, 50% inhibition of growth of yeast containing the target gene

Compound: Nc1ccc(Oc2ccc(OC(F)(F)F)cc2)cc1 [Compound 510]
IC50 [1, 9]: < 1000 nM

Compound: Cc1cc(Oc2ccc(N)cc2)ccc1Cl [Compound 505]
IC50 [1, 9]: < 1000 nM
IC50 [1, 10]: 400 nM
Selectivity for PKC-theta v. PKC-delta [2]: 13
Selectivity for PKC-theta v. PKC-epsilon [3]: 11
Selectivity for PKC-theta v. PKC-eta [4]: 3.0

Compound: CC(C)(C)c1ccc(Oc2ccc(N)cc2)cc1 [Compound 471]
IC50 [1, 9]: < 1000 nM
IC50 [1, 10]: 140 nM
Selectivity for PKC-theta v. PKC-delta [2]: 2.5
Selectivity for PKC-theta v. PKC-epsilon [3]: 1.1
Selectivity for PKC-theta v. PKC-eta [4]: 0.36
Selectivity for PKC-theta v. yeast PKC1 [5]: 28
3H-TdR cpm ([6]; 0.5 uM compound): 21928 cpm
3H-TdR cpm ([6]; 1.0 uM compound): 880 cpm
EC50 ([7]; Lymphoma 1): 700 nM
EC50 ([7]; Lymphoma 2): 200 nM
EC50 ([7]; Lymphoma 4): < 100 nM
EC50 ([7]; Lymphoma 5): 700 nM
Inhibition of T cell lymphomas ([7]; all T cell lymphomas, 0.1 to 5 uM): inhibited
EC50 ([8]; 96 h, B-cell Hybridoma, 4 days growth): > 5000 nM
Effect on B-cell hybridoma ([8]; non-T cell control, 0.1 to 5 uM): not affected

Compound: Nc1ccc(Oc2ccc(OC(F)(F)F)cc2Cl)cc1 [Compound 498]
IC50 [1, 9]: < 1000 nM

Compound: CC(=O)Nc1ccc(Oc2ccc(Cl)cc2Cl)cc1 [Compound 501]
IC50 [1, 11]: > 10000 nM

Compound: Nc1ccc(Oc2ccc(Cl)cc2Cl)cc1 [Compound 506, 4-(2,4-dichlorophenoxy)aniline]
IC50 [1, 9]: 1000 to 10000 nM
IC50 [1, 10]: 1600 nM
Selectivity for PKC-theta v. PKC-delta [2]: 1.9
Selectivity for PKC-theta v. PKC-epsilon [3]: 2.5
Selectivity for PKC-theta v. PKC-eta [4]: 0.63
Selectivity for PKC-theta v. yeast PKC1 [5]: 9.4

Compound: Nc1ccc(Sc2ccc(C(F)(F)F)cc2)cc1 [Compound 741]
IC50 [1, 9]: < 1000 nM
IC50 [1, 10]: 250 nM
Selectivity for PKC-theta v. PKC-delta [2]: 8.0
Selectivity for PKC-theta v. PKC-epsilon [3]: 16
Selectivity for PKC-theta v. PKC-eta [4]: 4.0
Selectivity for PKC-theta v. yeast PKC1 [5]: 32

Compound: CC(C)(C)c1ccc(Oc2ccc(N)nc2)cc1 [Compound 486]
IC50 [1, 9]: > 10000 nM

Compound: CC(C)(C)c1ccc(Sc2ccc(N)cc2)cc1 [Compound 740]
IC50 [1, 9]: < 1000 nM
IC50 [1, 10]: 50 nM
Selectivity for PKC-theta v. PKC-delta [2]: 26
Selectivity for PKC-theta v. PKC-epsilon [3]: 12
Selectivity for PKC-theta v. PKC-eta [4]: 3.0
Selectivity for PKC-theta v. yeast PKC1 [5]: 80

Compound: Cc1ccc(Oc2ccc(N)cc2)cc1 [Compound 508]
IC50 [1, 9]: 1000 to 10000 nM

Compound: Nc1ccc(Oc2cc(Cl)cc(Cl)c2)cc1 [Compound 504]
IC50 [1, 9]: 1000 to 10000 nM
IC50 [1, 10]: 1600 nM
Selectivity for PKC-theta v. PKC-delta [2]: 8.1
Selectivity for PKC-theta v. PKC-epsilon [3]: 8.8
Selectivity for PKC-theta v. PKC-eta [4]: 1.8

Compound: Nc1ccc(Oc2ccccc2)cc1 [Compound 500]
IC50 [1, 9]: > 10000 nM

Compound: Nc1ccc(Oc2ccc(C(F)(F)F)cc2Cl)cc1 [Compound 499]
IC50 [1, 11]: < 1000 nM

Compound: Nc1ccc(Oc2ccccc2C(=O)O)cc1 [Compound 553]
IC50 [1, 9]: > 10000 nM

Compound: Cc1cc(Oc2ccc(N)cc2)ccc1Cl [Compound 507]
IC50 [1, 9]: 1000 to 10000 nM

Further lines, results first:

IC50 [1, 9]: 1000 to 10000 nM
Compound: CC(C)(C)c1ccc(S(=O)(=O)c2ccc(N)cc2)cc1 [Compound 749]

IC50 [1, 9]: < 1000 nM
Compound: Nc1ccc(Oc2ccc(C(F)(F)F)cc2Br)cc1 [Compound 747]

IC50 [1, 9]: < 1000 nM
Compound: CCCc1ccc(Oc2ccc(N)cc2)cc1 [Compound 745]

IC50 [1, 9]: 1000 to 10000 nM
Compound: Nc1ccc(S(=O)(=O)c2ccc(C(F)(F)F)cc2)cc1 [Compound 753]

IC50 [1, 9]: < 1000 nM
Compound: CCC(C)(C)c1ccc(Oc2ccc(N)cc2)cc1 [Compound 730]

IC50 [1, 9]: < 1000 nM
Compound: CC(C)c1ccc(Oc2ccc(N)cc2)cc1 [Compound 742]

IC50 [1, 9]: > 10000 nM
Compound: CC(C)(C)c1ccc(S(=O)(=O)c2ccc(N)cc2)cc1 [Compound 750]

IC50 [1, 9]: > 10000 nM
Compound: Nc1ccc([S+]([O-])c2ccc(C(F)(F)F)cc2)cc1 (centres unmarked) [Compound 751]

IC50 [1, 9]: 1000 to 10000 nM
Compound: Nc1ccc(Oc2ccc(C(F)(F)F)cc2)cc1 [Compound 733]

IC50 [1, 9]: < 1000 nM
Compound: Nc1ccc(Oc2ccc(C3CCCC3)cc2)cc1 [Compound 761]
